# Measurements taken from patent US20240025906A1 (NEURON23, INC., priority 2022, published 2024).
# Columns and labels:
# [1] = target: T1, TYK2 JH2 (Homo sapiens, UniProt P29597); assay: TYK2 JH2 binding assay (KINOMEscan KdELECT competitive binding); conditions: TYK2 JH2 domain, DiscoverX KINOMEscan KdELECT (Assay A); read-out: Biochemical TYK2_DiscoverX_JH2_BND_Kd
# T1 construct: purchased DiscoverX (KINOMEscan KdELECT service); host or cells: E. coli BL21-derived (T7 phage display) or HEK-293
# T1 sequence (P29597 589-875 limits assumed): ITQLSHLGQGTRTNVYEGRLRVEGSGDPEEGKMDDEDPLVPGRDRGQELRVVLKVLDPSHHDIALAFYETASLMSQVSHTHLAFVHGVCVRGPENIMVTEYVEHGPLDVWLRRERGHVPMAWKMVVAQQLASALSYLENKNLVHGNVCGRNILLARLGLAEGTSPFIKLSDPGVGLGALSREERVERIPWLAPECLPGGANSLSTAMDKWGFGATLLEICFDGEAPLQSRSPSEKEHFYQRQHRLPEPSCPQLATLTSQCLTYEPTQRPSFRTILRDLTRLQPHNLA
# Outline: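 Test compounds were titrated in 11 three-fold steps against JH2 fragment captured on ligand-loaded magnetic beads, with 1 h incubation at room temperature and DMSO at 0.9%. Eluted kinase was quantified by qPCR, and Kd was fitted from the dose series.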
# [2] = system: JAK1/TYK2 pSTAT5 (Tyr694/699) in THP-1 cell line; assay: IFNa-stimulated JAK1/TYK2 pSTAT5 (Tyr694/699) inhibition cellular assay, AlphaLISA; format: cell-based; conditions: Homo sapiens; THP-1 cells, IFNa-stimulated, AlphaLISA (Assay B); read-out: Cellular_THP1_IFNa-pSTATS_TYK2
# Outline: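 THP-1 cells (2e4/well) in HBSS preincubated 1 h at 37° C. with compound (final 10000–0.04 nM, 8 points, 6-fold), then stimulated with IFNa (100 ng/mL stock) for 30 min before lysis. pSTAT5 (Tyr694/699) read by AlphaLISA at 615 nm; IC50 from four-parameter logistic fit with bottom fixed at 0 and Hill slope at −1.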
Kd [1],IC50 [2],SMILES
≤ 0.1 µM,≤ 0.5 µM,"COc1ccc2oc(-c3cnc(NC4CC4)c4cnc(NC(=O)C5CC5)cc34)nc2c1 [Example 367, N-(8-(cyclopropylamino)-5-(5-methoxybenzo[d]oxazol-2-yl)-2,7-naphthyridin-3-yl)cyclopropanecarboxamide]"
≤ 0.1 µM,≤ 0.5 µM,"C[C@H]1CN(c2ccc3oc(-c4cnc(N)c5cnc(NC(=O)C6CC6)cc45)nc3c2)CCO1 [Example 368, (S)—N-(8-amino-5-(5-(2-methylmorpholino)benzo[d]oxazol-2-yl)-2,7-naphthyridin-3-yl)cyclopropanecarboxamide]"
≤ 0.1 µM,≤ 0.5 µM,"COc1ccc2oc(-c3cnc(N)c4cnc(NC(=O)C5CC5)cc34)nc2c1 [Example 369, N-(8-amino-5-(5-methoxybenzo[d]oxazol-2-yl)-2,7-naphthyridin-3-yl)cyclopropanecarboxamide]"
≤ 0.1 µM,≤ 0.5 µM,"COc1ccc2oc(-c3cnc(NCC(F)F)c4cnc(NC(=O)C5CC5)cc34)nc2c1 [Example 370, N-(8-((2,2-difluoroethyl)amino)-5-(5-methoxybenzo[d]oxazol-2-yl)-2,7-naphthyridin-3-yl)cyclopropanecarboxamide]"
≤ 0.1 µM,> 0.5 µM,"O=C(Nc1cc2c(-c3nc4ccccc4o3)cnc(O)c2cn1)C1CC1 [Example 371, N-(5-(benzo[d]oxazol-2-yl)-8-hydroxy-2,7-naphthyridin-3-yl)cyclopropanecarboxamide]"
≤ 0.1 µM,≤ 0.5 µM,"CNc1ncc(-c2nc3cc(OC)ccc3o2)c2cc(Nc3ccccn3)ncc12 [Example 372, 4-(5-methoxybenzo[d]oxazol-2-yl)-N^1-methyl-N^6-(pyridin-2-yl)-2,7-naphthyridine-1,6-diamine]"
≤ 0.1 µM,> 0.5 µM,"CNc1ncc(-c2nc3cc(OC)ccc3o2)c2cc(Nc3ccc(F)cn3)ncc12 [Example 374, N^6-(5-fluoropyridin-2-y1)-4-(5-methoxybenzo[d]oxazol-2-yl)-N^1-methyl-2,7-naphthyridine-1,6-diamine]"
≤ 0.1 µM,≤ 0.5 µM,"CNc1ncc(-c2nc3cc(OC)ccc3o2)c2cc(Nc3ccc(C(C)(C)O)cn3)ncc12 [Example 375, 2-(6-((5-(5-methoxybenzo[d]oxazol-2-y1)-8-(methylamino)-2,7-naphthyridin-3-yl)amino)pyridin-3-yl)propan-2-ol]"
≤ 0.1 µM,≤ 0.5 µM,"CNc1ncc(-c2nc3cc(OC)ccc3o2)c2cc(Nc3cc(C)n(C)n3)ncc12 [Example 376, N^6-(1,5-dimethyl-1H-pyrazol-3-yl)-4-(5-methoxybenzo[d]oxazol-2-yl)-N^1-methyl-2,7-naphthyridine-1,6-diamine]"
≤ 0.1 µM,≤ 0.5 µM,"CNc1ncc(-c2nc3cc(OC)ccc3o2)c2cc(Nc3cc(C)nc(C)n3)ncc12 [Example 377, N^6-(2,6-dimethylpyrimidin-4-yl)-4-(5-methoxybenzo[d]oxazol-2-yl)-N^1-methyl-2,7-naphthyridine-1,6-diamine]"
≤ 0.1 µM,≤ 0.5 µM,"CNc1ncc(-c2nc3cc(OC)ccc3o2)c2cc(Nc3ccc(OC)cn3)ncc12 [Example 378, 4-(5-methoxybenzo[d]oxazol-2-yl)-N^6-(5-methoxypyridin-2-yl)-N^1-methyl-2,7-naphthyridine-1,6-diamine]"
≤ 0.1 µM,≤ 0.5 µM,"CNc1ncc(-c2nc3cc(OC)ccc3o2)c2cc(Nc3cccc(OC)n3)ncc12 [Example 379, 4-(5-methoxybenzo[d]oxazol-2-yl)-N^6-(6-methoxypyridin-2-yl)-N^1.methyl-2,7-naphthyridine-1,6-diamine]"
≤ 0.1 µM,≤ 0.5 µM,"CNc1ncc(-c2nc3cc(OC)ccc3o2)c2cc(Nc3ccc(N4CCOCC4)cn3)ncc12 [Example 380, 4-(5-methoxybenzo[d]oxazol-2-yl)-N^1-methyl-N^6-(5-morpholinopyridin-2-yl)-2,7-naphthyridine-1,6-diamine]"
